Measured values published in US11326165B1, “Methods and compositions for modulating splicing” (SKYHAWK THERAPEUTICS, INC., priority 2017, dated 2022).

Tests used:
A673 cells = experiment: Cell viability and proliferation, A673 cells (crystal violet); format: cell-based; details: cell proliferation IC50 in NHDF cells over A673 cells, 72 h
Method: Small molecule splicing modulators were tested in a dose-response assay using A673 cells and NHDF cells.
A673 cells or NHDF cells were first plated in 96-well plastic tissue culture plates (10,000 cells per well). The cells were treated with vehicle alone (DMSO), or increasing concentrations of SMSM compounds for 72 h. Following treatment, cell proliferation was determined using a crystal violet assay. The relative cell proliferation at each concentration was determined.

[1] = Maximum tolerable dose study (survival, body weight); format: in vivo; details: mice
Method: Survival of mice after administration of SMSMs after 10 or 11 days was assessed.
Tolerance of the drug treatments was determined by measuring the weight of the mice during the period of drug administration. Body weight was measured prior to tumor inoculation and prior to the treatment administration and then daily. The changes in the final weight of the mice for the SMSM treatments were determined.

A673 xenografts = A673 xenografts in nude mice, tumor growth inhibition; format: in vivo; details: A673 xenograft (FIGS. 14A-C)
Method: Dose range and time course studies comparing anti-neoplastic effects of SMSM−167 and SMSM−151 against vehicle were conducted.
Female NCrNu mice were used. Age range of enrolment was 7-10 weeks. A total of 75 animals were for the studies.
The A673 tumor cell line was maintained in vitro as a monolayer culture. […] The cells growing in an exponential growth phase were harvested and counted for tumor inoculation.
Each mouse were inoculated into a right flank with the single cell suspension of 95% viable tumor cells (5×10^6 cells/mouse) in serum-free RPMI 1640 Media for tumor development. Treatments were administered when mean tumor size reached approximately 75 mm^3.
Before commencement of treatment, all animals were weighed and assigned to treatment groups using a randomization procedure. Mice were randomized into groups based upon their tumor sizes to ensure that each group had approximately the same mean tumor size and range of tumor size.
After inoculation, the animals were checked daily for morbidity and mortality. At the time of routine monitoring, the animals were checked for any effects of tumor growth on normal behavior such as mobility, food and water consumption, body weight gain/loss, eye/hair matting and any other abnormal effects. Deaths and observed clinical signs were recorded.
Body weight were measured prior to tumor inoculation and prior to the treatment administration and then daily. Tumor size were measured 2-3 times per week in two dimensions using a caliper, and the volume were expressed in mm^3 using the formula: V=0.5×a×b^2 where a and b are the long and short diameters of the tumor, respectively.
(§1) Studies were terminated when the tumor size in the vehicle treated group reached 2,000 mm^3. Each mouse was bled at 2 hrs after the last dose and at least 50 μl of plasma were collected from each mouse. All of the collected plasma samples and retainer dosing solutions for each dose level were used for bioanalytical measurements. All tumors were also collected and weighed. One necrosis-free tumor fragment of approximately 50 mg was taken from each tumor and flash-frozen for RNA isolation. The remaining tumor was flash frozen for PK analysis.
Studies were performed to assess the effects of in vivo SMSM treatment on glioblastoma, breast, pancreatic, prostate, melanoma, lymphoma and Ewing sarcoma tumors. Studies were also performed to assess the effects of in vivo SMSM treatment on mRNA levels. Immunocompromised nude mice with pre-existing glioblastoma, breast, pancreatic, prostate, melanoma, lymphoma and Ewing sarcoma xenografts were treated with vehicle or SMSMs. Tumor tissues from subcutaneous xenografts were broken into a powder using a BioPulverizer (Biospec Products, Inc.). After SMSM treatment, mRNA was isolated from the xenografts and was analyzed by qRT-PCR.
as §1, with “Tumor size was measured 2 times per week in two dimensions using a caliper. Studies” for “Studies”, “plasma was” for “plasma were”
The effects of in vivo SMSM treatments on pre-existing subcutaneous glioblastoma, breast, pancreatic, prostate, melanoma, lymphoma and Ewing sarcoma xenografts were assessed. For these in vivo experiments, 1×10^6Raji, A375, A673, MDA-MB-231, BxPC-3, PC-3 or U87 (cells re-suspended in 100 μl PBS were subcutaneously injected into the flanks of nude mice. When the tumor reached approximately 100 mm^3 (volume=(¾)(π)(length/2)(width/2)^2), the treatments indicated in the tables below were initiated. […]

A-673 cells = experiment: A-673 cell viability; format: cell-based; details: Homo sapiens, A673
Method: FIG. 9A depicts a graph of viable A-673 cells when incubated with the indicated concentrations of an SMSM.

FoxM1 A mRNA = experiment: FoxM1 splicing in cells: FoxM1 A mRNA increase (exon excluded); format: cell-based; details: read-out: Splice EC50 (nM) FoxM1 A mRNA increase (exon excluded)
Method: (§2) FIG. 7 depicts a graph of relative transcript levels of FOXM1 isoform A (represses cancer) and FOXM1 isoform B (promotes cancer) in A-673 cells incubated with the indicated concentrations of an SMSM.

FoxM1 BC mRNA = experiment: FoxM1 splicing in cells: FoxM1 BC mRNA decrease (exon included); format: cell-based; details: read-out: Splice IC50 (nM) FoxM1 BC mRNA decrease (exon included)
Method: as §2

IKBKAP = IKBKAP splicing assay (IKBKAP^FL and IKBKAP^Δ20 mRNA, qPCR); format: cell-based; details: 24 hours
Method: Various cells lines were treated with the SMSMs described herein. RNA was then isolated, cDNA synthesized, qPCR performed and the levels of IKBKAP targets of the SMSMs were detemined.
On the day of the experiment, a 96-well plate was seeded with the cell lines of interest. The cells were diluted with full growth media to a concentration of 2.0×10^5 cells/mL and 100 μL of cells were added to each well (20,000 cells per well). The cells were treated with a compound immediately after plating.
The compounds were then added to the cell plate using the HP compound dispenser. In the initial experiment, atop concentration of 10 μM and an 8 point 4-fold dilution scheme was used. […]
The qPCR was performed using a QuantStudio 6 instrument (ThermoFisher) and the following cycling conditions and according to the tables below. All samples and standards were analyzed in triplicate. […]
The determined IKBKAP^FL and IKBKAP^Δ20 isoform quantities were then used to determine the IKBKAP^FL: IKBKAP^Δ20 ratio at increasing SMSM compound concentrations. The PPIA quantities were used in the normalization to account of cell proliferation effects of the compounds.
An assay to measure the IKBKAP^FL mRNA and IKBKAP^Δ20 mRNA simultaneously in cell wells was performed. The RNA values were measured relative to DMSO control and also included a housekeeping gene, PPIA to ensure data was consistent. […]

## CN(c1ccc(-c2cc(F)c(-c3cn[nH]c3)cc2O)nn1)[C@H]1C[C@]2(C)CC[C@](C)(C1)N2 [compound 167, 2-(6-(((1R,3s,5S)-1,5-dimethyl-8-azabicyclo[3.2.1]octan-3-yl)(methyl)amino)pyridazin-3-yl)-4-fluoro-5-(1H-pyrazol-4-yl)phenol]
A673 cells
  Ratio NHDF/A673 IC50: >2,500
[1]; IP, 0.1 mg/kg, BIDx12
  Outcome: All survived
[1]; IP, 0.3 mg/kg, BIDx12
  Outcome: All survived
[1]; IP, 1 mg/kg, QDx12
  Outcome: All survived
[1]; PO, 5 mg/kg, QDx12
  Outcome: All survived
A673 xenografts; 5 mg/kg BID PO, Day 7
  TGI(%): 65.56%
A673 xenografts; 5 mg/kg BID PO, Day 11
  TGI(%): 56.92%
A673 xenografts; 5 mg/kg BID PO, Day 14
  TGI(%): 55.14%
A673 xenografts; 5 mg/kg BID PO, Day 18
  TGI(%): 59.68%
A673 xenografts; 7.5 mg/kg BID PO, Day 7
  TGI(%): 59.45%
A673 xenografts; 7.5 mg/kg BID PO, Day 11
  TGI(%): 64.75%
A673 xenografts; 7.5 mg/kg BID PO, Day 14
  TGI(%): 64.43%
A673 xenografts; 7.5 mg/kg BID PO, Day 18
  TGI(%): 72.80%
A673 xenografts; 10 mg/kg QD PO, Day 7
  TGI(%): −32.72%
A673 xenografts; 10 mg/kg QD PO, Day 11
  TGI(%): 3.85%
A673 xenografts; 10 mg/kg QD PO, Day 14
  TGI(%): −2.13%
A673 xenografts; 10 mg/kg QD PO, Day 18
  TGI(%): 41.77%

## Oc1cc(C2C=NN=N2)ccc1-c1ccc(O[C@@H]2C[C@H]3CC[C@@H](C2)N3)nn1 (stereo partly drawn) [compound 253, 2-(6-(((1R,3s,5S)-8-azabicyclo[3.2.1]octan-3-yl)oxy)pyridazin-3-yl)-5-(1H-1,2,3-triazol-4-yl)phenol]
A-673 cells
  IC50: 501 to 1000 nM
FoxM1 A mRNA
  EC50: 251 to 500 nM
FoxM1 BC mRNA
  IC50: 251 to 500 nM

## Oc1cc(-c2cn[nH]c2)ccc1-c1ccc(O[C@@H]2C[C@H]3CCC[C@@H](C2)N3)nn1 [compound 276, 2-(6-(((1R,3s,5S)-9-azabicyclo[3.3.1]nonan-3-yl)oxy)pyridazin-3-yl)-5-(1H-pyrazol-4-yl)phenol]
A-673 cells
  IC50: 101 to 250 nM

## Oc1cc(-c2cn[nH]c2)ccc1-c1ccc(O[C@H]2C[C@H]3CCC[C@@H](C2)N3)nn1 [compound 277, 2-(6-(((1R,3r,5S)-9-azabicyclo[3.3.1]nonan-3-yl)oxy)pyridazin-3-yl)-5-(1H-pyrazol-4-yl)phenol]
A-673 cells
  IC50: > 1000 nM
FoxM1 A mRNA
  EC50: > 1000 nM
FoxM1 BC mRNA
  IC50: > 1000 nM

## Oc1cc(-c2cn[nH]c2)c(F)cc1-c1ccc(O[C@@H]2C[C@H]3CCC[C@@H](C2)N3)nn1 [compound 278, 2-(6-(((1R,3s,5S)-9-azabicyclo[3.3.1]nonan-3-yl)oxy)pyridazin-3-yl)-4-fluoro-5-(1H-pyrazol-4-yl)phenol]
IKBKAP; IKBKAP^FL mRNA increase
  EC50: 101 to 350 nM
IKBKAP; IKBKAP^Δ20 mRNA decrease
  IC50: < 200 nM
